Reference: patent US10206911B2, “Androgen receptor variants and methods for making and using” (MEMORIAL SLOAN-KETTERING CANCER CENTER, priority 2012, dated 2019)
“Also recorded” adds a separate entry of the source.

How the values were obtained:
[1] = tested on: CWR22PC cells expressing AR WT; experiment: CWR22PC cell viability (CellTiterGLO); format: cell-based, human; settings: full serum media; days 1, 4, and 7
Experimental: […]. […] CellTiterGLO assay was performed on days 1, 4, and 7 to measure cell viability. […] CellTiterGLO assay was performed on days 1, 4, and 7 to measure cell viability.
[…]. […] CellTiterGLO assay was performed on days 1, 4, and 7 to determine cell viability. RLU=relative light units.

[2] = tested on: AR mutants isolated from drug resistant LNCaP/AR xenograft tumors; experiment: Luciferase reporter assay of AR activity in androgen depleted media, CV1 cells; format: cell-based, human; settings: 10 μm antiandrogen
[3] = tested on: AR mutants isolated from drug resistant LNCaP/AR xenograft tumors; experiment: EGFP reporter assay of AR activity, LNCaP/Pb.PSE.EGFP cells; format: cell-based, human; settings: androgen containing media, 10 μM antiandrogen
Experimental: Additionally, EGFP reporter assays of AR activity in cells expressing the indicated AR mutants were performed and the data are presented in FIG. 21A and FIG. 21B.

[4] = tested on: AR mutants isolated from drug resistant CWR22Pc cells; experiment: EGFP reporter assay and qRT-PCR, LNCaP/Pb.PSE.EGFP cells; format: cell-based, human; settings: 10 μM antiandrogen; variable degrees, gene-specific differences
[5] = tested on: LNCaP/AR cells ectopically expressing AR WT; experiment: LNCaP/AR xenograft, time to tumor progression; format: in vivo, castrated male SCID mice; settings: 30 mg/kg enzalutamide, daily gavage, castrate SCID mice
Experimental: Daily gavage treatment (using a formulation of 1% carboxymethyl cellulose, 0.1% Tween-80, 5% DMSO) was initiated on the day of injection. Once tumors were palpable, tumor size was measured weekly in three dimensions (1×w×d) with calipers.

[6] = tested on: VCaP cells overexpressing AR WT; experiment: VCaP growth assay (CellTiter-GLO); format: cell-based, human; settings: full-serum containing media, 10 μM
AR T877A = biological target: T1, AR T877A (Homo sapiens, UniProt P10275, DEL79-80/DUP473-473/T878A); experiment: AR luciferase reporter assay (ARE(4X)-luciferase) in CV1 cells; format: cell-based; settings: 10 μM antiandrogen
T1 construct: expressed in transfected cells; host or cells: CV1
T1 sequence (P10275 with tags, fused parts or gaps DEL79-80/DUP473-473/T878A): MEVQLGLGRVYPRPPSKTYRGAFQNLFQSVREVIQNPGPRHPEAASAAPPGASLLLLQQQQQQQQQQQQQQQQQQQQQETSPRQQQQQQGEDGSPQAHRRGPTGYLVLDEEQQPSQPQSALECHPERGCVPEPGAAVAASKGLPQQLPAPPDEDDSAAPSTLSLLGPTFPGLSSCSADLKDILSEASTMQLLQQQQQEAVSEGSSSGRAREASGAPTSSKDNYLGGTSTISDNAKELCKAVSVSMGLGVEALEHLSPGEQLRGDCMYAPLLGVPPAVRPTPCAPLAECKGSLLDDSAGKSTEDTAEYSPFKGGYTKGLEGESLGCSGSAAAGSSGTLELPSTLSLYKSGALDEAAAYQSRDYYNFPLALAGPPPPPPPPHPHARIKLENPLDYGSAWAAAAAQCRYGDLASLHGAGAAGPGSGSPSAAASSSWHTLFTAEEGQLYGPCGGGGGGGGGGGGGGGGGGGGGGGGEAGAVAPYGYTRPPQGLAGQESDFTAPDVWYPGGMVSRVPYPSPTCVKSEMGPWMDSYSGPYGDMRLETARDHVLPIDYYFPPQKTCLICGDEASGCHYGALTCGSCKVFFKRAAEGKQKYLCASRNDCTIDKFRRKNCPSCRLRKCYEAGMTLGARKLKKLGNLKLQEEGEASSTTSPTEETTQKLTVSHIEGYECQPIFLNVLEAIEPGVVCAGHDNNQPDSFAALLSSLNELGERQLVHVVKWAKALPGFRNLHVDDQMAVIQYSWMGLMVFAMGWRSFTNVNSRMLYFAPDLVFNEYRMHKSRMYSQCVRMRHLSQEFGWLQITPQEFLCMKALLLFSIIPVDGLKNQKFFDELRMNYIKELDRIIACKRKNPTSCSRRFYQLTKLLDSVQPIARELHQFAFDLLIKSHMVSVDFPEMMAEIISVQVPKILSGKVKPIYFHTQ
Experimental: Transfection media was removed 4-6 hours later and replaced with phenol red free DME-HG containing 10% charcoal stripped serum. The following day each plate was split into 24- or 48-well plates, in 10% CSS media, containing the indicated drugs in triplicate. Twenty-four to forty-eight hours later, luciferase activity was assayed using Dual-Luciferase Reporter Assay System (Promega) on a 96-well luminometer (Turner Biosystems).

Agonism in luciferase reporter (AR T877A) | Compound | Growth/viability of CWR22PC cells, AR WT [1] | Agonism on AR mutants, luciferase reporter [2] | Sensitivity of AR mutants, EGFP reporter [3] | Sensitivity of AR mutants, EGFP reporter assay & qRT-PCR [4] | Growth of wild-type AR tumors [5] | Growth of VCaP cells, AR WT [6]
 | CNC(=O)c1ccc(N2C(=S)N(c3ccc(C#N)c(C(F)(F)F)c3)C(=O)C2(C)C)cc1F [enzalutamide] | very sensitive | none of the mutants conferred agonism | still remained sensitive | still remained sensitive | almost completely inhibited | only inhibit the growth of VCaP/AR WT; also recorded: potently inhibits the growth
confer agonism | CC(C)(O)C(=O)Nc1ccc([N+](=O)[O-])c(C(F)(F)F)c1 [hydroxyflutamide] |  |  |  |  |  | 
